Data published in ChEMBL document CHEMBL1126714, “Structure, DNA minor groove binding, and base pair specificity of alkyl- and aryl-linked bis(amidinobenzimidazoles) and bis(amidinoindoles)” (J Med Chem, 1993).

Legend:
Assay type in all cases: nucleic-acid assay
Nucleic Acid [1] = assay: Thermal denaturation in alternating poly(dA-dT)poly(dA-dT) homopolymer (AT)
Nucleic Acid [2] = assay: Thermal denaturation in sonicated poly(dA)-poly(dT) homopolymer (AT)
Calf thymus DNA = assay: Thermal denaturation in sonicated calf thymus DNA (CT DNA); details: Bos taurus
Nucleic Acid [3] = assay: Thermal denaturation in alternating poly(dG-dC)-poly(dG-dC) homopolymer (GC)
Nucleic Acid [4] = assay: Ratio between poly-dAdT and poly-dGdC binding

Row | Structure (SMILES) | Tm (Nucleic Acid [1]) [°C] | Tm (Nucleic Acid [2]) [°C] | Tm (Calf thymus DNA) [°C] | Tm (Nucleic Acid [3]) [°C] | Ratio (Nucleic Acid [4])
1 | C/C(=C(/C)c1nc2cc(C(=N)N)ccc2[nH]1)c1nc2cc(C(=N)N)ccc2[nH]1 | 15.6 | 17.3 | 14.1 | 4.6 | 3
2 | CNc1ccc2[nH]c(CCc3nc4cc(NC)ccc4[nH]3)nc2c1 | 14.1 | 34.2 | 12.8 | 3.9 | 4
3 | N=C(N)c1ccc2c(ccn2Cc2cccc(Cn3ccc4cc(C(=N)N)ccc43)c2)c1 | 9.2 | 8.1 | 8.1 | 4 | 2.3
4 | N=C(N)c1ccc2c(ccn2CCCCCn2ccc3cc(C(=N)N)ccc32)c1 | 12.9 | 15.3 | 10.2 | 5 | 2.6
5 | N=C(N)c1ccc2nc(Cc3nc4ccc(C(=N)N)cc4[nH]3)[nH]c2c1 | 11.5 | 9.2 | 7.6 | 3.5 | 3
6 | N=C(N)c1ccc2[nH]c(Cc3nc4ccccc4[nH]3)nc2c1 | 1 | 1.3 | 1.4 | 0.2 | 
7 | c1cc2[nH]c(CCCCc3nc4cc(C5=NCCN5)ccc4[nH]3)nc2cc1C1=NCCN1 | 28.9 | 34.5 | 15.3 | 4.6 | 6
8 | N=C(N)c1ccc2c(ccn2CCCn2ccc3cc(C(=N)N)ccc32)c1 | 20.3 | 19.2 | 13.7 | 6.5 | 3.1
9 | N=C(N)c1ccc2c(ccn2CCCCCCn2ccc3cc(C(=N)N)ccc32)c1 | 13.4 | 17.7 | 10.5 | 5.9 | 2.3
10 | Cc1cc(-c2nc3cc(C(=N)N)ccc3[nH]2)c(C)cc1-c1nc2cc(C(=N)N)ccc2[nH]1 | 26.5 | 29 | 15.6 | 3.7 | 7
11 | CN1CCN(c2ccc3[nH]c(-c4ccc5[nH]c(-c6ccc(O)cc6)nc5c4)nc3c2)CC1 | 24.1 | 32.4 | 14.1 | 2.5 | 10
12 | c1c[nH]c(-c2ccc(-c3cc4ccc(-c5ncc[nH]5)cc4[nH]3)cc2)n1 | 42.7 | 45.3 | 22.4 | 9.4 | 5
13 | N=C(N)c1ccc(OCCCCCOc2ccc(C(=N)N)cc2)cc1 | 20.2 | 22.9 | 10.7 | 3.2 | 6
14 | CC(C)NC(=N)c1ccc2[nH]c(/C=C/c3nc4cc(C(=N)NC(C)C)ccc4[nH]3)nc2c1 | 22.5 | 31.6 | 22.8 | 5.5 | 5
15 | c1cc2[nH]c(CCc3nc4cc(C5=NCCN5)ccc4[nH]3)nc2cc1C1=NCCN1 | 34.6 | 40 | 18.5 | 3 | 
16 | N=C(N)c1ccc2[nH]c(CCCCCCc3nc4cc(C(=N)N)ccc4[nH]3)nc2c1 | 28 | 34 | 13.5 | 3.5 | 8
17 | CC(C)NC(=N)c1ccc2[nH]c(-c3ccc(-c4nc5cc(C(=N)NC(C)C)ccc5[nH]4)cc3)nc2c1 | 45 | 44.3 | 22.3 | 5.6 | 8
18 | OC/C=N\c1ccc2[nH]c(CCc3nc4cc(/N=C/CO)ccc4[nH]3)nc2c1 | 1.4 | 4.5 | 2 | 0.7 | 3
19 | N=C(N)c1ccc2c(ccn2CCCCn2ccc3cc(C(=N)N)ccc32)c1 | 16.3 | 18.2 | 12.1 | 7.3 | 2.2
20 | N=C(N)c1ccc2[nH]c(CCCCCCCCc3nc4cc(C(=N)N)ccc4[nH]3)nc2c1 | 21.2 | 22.8 | 10.2 | 3.2 | 7

Row | Structure (SMILES) | Tm (Nucleic Acid [1]) [°C] | Tm (Nucleic Acid [2]) [°C] | Tm (Calf thymus DNA) [°C] | Tm (Nucleic Acid [3]) [°C] | Ratio (Nucleic Acid [4])
21 | c1cc2[nH]c(CCc3nc4cc(C5=NCCCN5)ccc4[nH]3)nc2cc1C1=NCCCN1 | 39.5 | 45.1 | 19.7 | 2.7 | 15
22 | N=C(N)c1ccc2[nH]c(/C=C/c3nc4cc(C(=N)N)ccc4[nH]3)nc2c1 | 42.4 | 46.1 | 21.8 | 5.8 | 7
23 | N=C(N)c1ccc(-c2cc3ccc(C(=N)N)cc3[nH]2)cc1 | 40.5 | 38.8 | 21.5 | 6.9 | 6
24 | c1ccc2[nH]c(CCc3nc4ccccc4[nH]3)nc2c1 | 0.1 | 2.1 | 4.3 | 1 | 
25 | Cn1cc(NC(=O)c2cc(NC(=O)CNC(=N)N)cn2C)cc1C(=O)NCCC(=N)N | 35.1 | 46.6 | 19 | 1.1 | 32
26 | Nc1ccc2nc(CCc3nc4ccc(N)cc4[nH]3)[nH]c2c1 | 0.6 | 3 | 1.6 | 2.6 | 
27 | N=C(N)c1ccc2[nH]c(CCCCCc3nc4cc(C(=N)N)ccc4[nH]3)nc2c1 | 18.3 | 24.7 | 10.1 | 3.3 | 5
28 | N=C(N)c1ccc2[nH]c(-c3cccc(-c4nc5cc(C(=N)N)ccc5[nH]4)c3)nc2c1 | 23.9 | 34.6 | 12.8 | 5.6 | 4
29 | CC(C)NC(=N)c1ccc2[nH]c(CCc3nc4cc(C(=N)NC(C)C)ccc4[nH]3)nc2c1 | 32.9 | 37.3 | 19.2 | 3.3 | 10
30 | c1cc2[nH]c(Cc3nc4cc(C5=NCCN5)ccc4[nH]3)nc2cc1C1=NCCN1 | 10.7 | 13.5 | 6.9 | 4.1 | 3
31 | N=C(N)c1ccc2[nH]c(CCCCc3nc4cc(C(=N)N)ccc4[nH]3)nc2c1 | 31.3 | 33.5 | 15.9 | 3.3 | 9
32 | c1cc2[nH]c(CCCc3nc4cc(C5=NCCN5)ccc4[nH]3)nc2cc1C1=NCCN1 | 20.1 | 24.8 | 9.9 | 3.3 | 6
33 | O=[N+]([O-])c1ccc2[nH]c(CCc3nc4cc([N+](=O)[O-])ccc4[nH]3)nc2c1 | 0.2 | 0.5 | 1.5 | 2.6 | 
34 | N=C(N)c1ccc2[nH]c(CCCc3nc4cc(C(=N)N)ccc4[nH]3)nc2c1 | 20.1 | 30.6 | 10.6 | 3.3 | 6
35 | N=C(N)c1ccc2[nH]c(CCc3nc4cc(C(=N)N)ccc4[nH]3)nc2c1 | 37.2 | 42.4 | 18.5 | 4 | 4
36 | N=C(N)c1ccc2[nH]c(-c3ccc(-c4nc5cc(C(=N)N)ccc5[nH]4)cc3)nc2c1 | 21.7 | 27.5 | 13.3 | 3.1 | 7
37 | C1=NCCCN1Cc1ccc2[nH]c(CCc3nc4cc(CN5C=NCCC5)ccc4[nH]3)nc2c1 | 28.9 | 30.7 | 13.3 | 1.6 | 18
38 | CC[n+]1c(-c2ccccc2)c2cc(N)ccc2c2ccc(N)cc21 | 16.8 | 9.9 | 12.4 | 5.3 | 3
39 | c1cc2[nH]c(CCc3nc4cc(N5CCOCC5)ccc4[nH]3)nc2cc1N1CCOCC1 | 0.8 | 0.9 | 0.6 | -0.3 | 
40 | N=C(N)c1ccc2c(ccn2Cc2ccc(Cn3ccc4cc(C(=N)N)ccc43)cc2)c1 | 11.9 | 10.8 | 9.3 | 5.4 | 2.2
